Reference: patent US9695154B2, “Heteroaryl inhibitors of sumo activating enzyme” (MILLENNIUM PHARMACEUTICALS, INC., priority 2013, dated 2017)

Target: T1, recombinant human SAE enzyme (Homo sapiens, UniProt Q9UBT2)
T1 sequence (Q9UBT2 1-640): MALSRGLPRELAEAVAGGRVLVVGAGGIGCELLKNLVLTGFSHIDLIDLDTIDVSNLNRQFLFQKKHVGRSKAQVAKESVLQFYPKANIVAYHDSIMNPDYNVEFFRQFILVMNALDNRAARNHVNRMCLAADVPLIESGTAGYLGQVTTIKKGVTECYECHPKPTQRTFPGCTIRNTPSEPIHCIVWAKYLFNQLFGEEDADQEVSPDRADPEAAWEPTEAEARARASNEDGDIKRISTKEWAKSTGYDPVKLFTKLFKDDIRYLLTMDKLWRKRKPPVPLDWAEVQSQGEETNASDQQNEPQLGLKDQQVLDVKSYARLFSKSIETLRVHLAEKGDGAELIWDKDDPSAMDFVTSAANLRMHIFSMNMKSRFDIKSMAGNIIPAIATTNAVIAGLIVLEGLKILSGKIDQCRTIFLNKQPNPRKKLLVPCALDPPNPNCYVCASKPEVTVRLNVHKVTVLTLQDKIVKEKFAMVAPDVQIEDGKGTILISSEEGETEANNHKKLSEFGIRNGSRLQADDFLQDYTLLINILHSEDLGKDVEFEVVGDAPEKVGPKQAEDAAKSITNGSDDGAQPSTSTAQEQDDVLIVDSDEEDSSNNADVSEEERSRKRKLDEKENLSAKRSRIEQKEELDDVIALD
T1 sequence (Q9UBE0 1-346 partner): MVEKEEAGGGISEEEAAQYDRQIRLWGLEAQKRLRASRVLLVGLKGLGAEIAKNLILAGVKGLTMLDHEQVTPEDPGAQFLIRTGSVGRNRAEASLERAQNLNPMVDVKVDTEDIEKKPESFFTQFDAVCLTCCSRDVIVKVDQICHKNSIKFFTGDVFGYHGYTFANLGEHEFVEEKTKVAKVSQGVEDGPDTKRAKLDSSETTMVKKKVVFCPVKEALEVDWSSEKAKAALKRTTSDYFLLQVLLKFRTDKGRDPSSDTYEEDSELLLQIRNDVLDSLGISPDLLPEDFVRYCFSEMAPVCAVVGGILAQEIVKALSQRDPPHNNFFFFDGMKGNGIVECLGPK
Test: SAE HTRF Enzyme Assay
Type: biochemical
Conditions: for IC50: class symbols A-C; for inhibition at 0.111 µM: compound concentration 0.111 μM, read-out: Percent Inhibition
In short: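 SAE 0.11 nM; ATP 0.5 μM; Sumo-Flag 0.125 μM; Ubc9-GST 0.01 μM; 250 μM GSH, 5 mM MgCl2, pH 7.5. 105 min, 24° C. EDTA/KF stop plus Eu/APC antibodies, 2 h, TR-FRET. % inhibition or IC50.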

| SMILES | IC50 [nM] | inhibition at 0.111 µM [%] |
| --- | --- | --- |
| NS(=O)(=O)CC[C@H]1C[C@@H](Nc2ncncc2C(=O)c2ccn(Cc3cccc(Br)c3)n2)C[C@@H]1O [Compound I-38, 2-{(1R,2S,4R)-4-[(5-{[1-(3-bromobenzyl)-1H-pyrazol-3-yl]carbonyl}pyrimidin-4-yl)amino]-2-hydroxycyclopentyl}ethanesulfonamide] | 100 to 1000 | 51 |
| NS(=O)(=O)OC[C@H]1C[C@@H](Nc2ncncc2C(=O)c2ccn(Cc3ccccc3OC(F)(F)F)n2)C[C@@H]1O [Compound I-39, [(1R,2S,4R)-2-hydroxy-4-{[5-({1-[2-(trifluoromethoxy)benzyl]-1H-pyrazol-3-yl}carbonyl)pyrimidin-4-yl]amino}cyclopentyl]methyl sulfamate] | < 10 | 98 |
| NS(=O)(=O)OC[C@H]1C[C@@H](Nc2ncncc2C(=O)c2ccn(Cc3cccc(Cl)c3)n2)[C@H](O)[C@@H]1O [Compound I-40, {(1R,2R,3S,4R)-4-[(5-{[1-(3-Chlorobenzyl)-1H-pyrazol-3-yl]carbonyl}pyrimidin-4-yl)amino]-2,3-dihydroxycyclopentyl}methyl sulfamate] | < 10 | 97 |
| COCc1ccc(Cn2ccc(C(=O)c3cncnc3N[C@@H]3C[C@H](COS(N)(=O)=O)[C@@H](O)[C@@H]3F)c2)o1 [Compound I-41, [(1R,2R,3R,4R)-3-fluoro-2-hydroxy-4-({5-[(1-{[5-(methoxymethyl)-2-furyl]methyl}-1H-pyrrol-3-yl)carbonyl]pyrimidin-4-yl}amino)cyclopentyl]methyl sulfamate] | < 10 | 94 |
| NS(=O)(=O)OC[C@H]1C[C@@H](Nc2ncncc2C(=O)c2ccn(Cc3cccc(I)c3)n2)[C@@H](F)[C@@H]1O [Compound I-42, {(1R,2R,3R,4R)-3-fluoro-2-hydroxy-4-[(5-{[1-(3-iodobenzyl)-1H-pyrazol-3-yl]carbonyl}pyrimidin-4-yl)amino]cyclopentyl}methyl sulfamate] | < 10 | 99 |
| NS(=O)(=O)OC[C@H]1C[C@@H](Nc2ncncc2C(=O)c2ccn(Cc3ccc(Cl)c(Br)c3)c2)C[C@@H]1O [Compound I-43, {(1R,2S,4R)-4-[(5-{[1-(3-bromo-4-chlorobenzyl)-1H-pyrrol-3-yl]carbonyl}pyrimidin-4-yl)amino]-2-hydroxycyclopentyl}methyl sulfamate] | < 10 | 98 |
| NS(=O)(=O)OC[C@H]1C[C@@H](Nc2ncncc2C(=O)c2cc(F)n(Cc3cccc(Br)c3)c2)[C@@H](F)[C@@H]1O [Compound I-44, {(1R,2R,3R,4R)-4-[(5-{[1-(3-Bromobenzyl)-5-fluoro-1H-pyrrol-3-yl]carbonyl}pyrimidin-4-yl)amino]-3-fluoro-2-hydroxycyclopentyl}methyl sulfamate] | < 10 | 99 |
| Cn1nc(C(F)(F)F)cc1Cn1ccc(C(=O)c2cncnc2N[C@@H]2C[C@H](COS(N)(=O)=O)[C@@H](O)C2)c1 [Compound I-45, [(1R,2S,4R)-2-hydroxy-4-({5-[(1-{[1-methyl-3-(trifluoromethyl)-1H-pyrazol-5-yl]methyl}-1H-pyrrol-3-yl)carbonyl]pyrimidin-4-yl}amino)cyclopentyl]methyl sulfamate] | 10 to 100 | 93 |
| NS(=O)(=O)OC[C@H]1C[C@@H](Nc2ncncc2C(=O)c2ccn(Cc3ccc(C(F)(F)F)c(F)c3)n2)[C@H](O)[C@@H]1O [Compound I-46, [(1R,2R,3S,4R)-4-{[5-({1-[3-fluoro-4-(trifluoromethyl)benzyl]-1H-pyrazol-3-yl}carbonyl)pyrimidin-4-yl]amino}-2,3-dihydroxycyclopentyl]methyl sulfamate] | < 10 | 96 |
| NS(=O)(=O)OC[C@H]1C[C@@H](Nc2ncncc2C(=O)c2ccn(Cc3ccc(Cl)cc3)n2)C[C@@H]1O [Compound I-47, {(1R,2S,4R)-4-[(5-{[1-{4-chlorobenzyl)-1H-pyrazol-3-yl]carbonyl}pyrimidin-4-yl)amino]-2-hydroxycyclopentyl}methyl sulfamate] | < 10 | 98 |
| NS(=O)(=O)OC[C@H]1C[C@@H](Nc2ncncc2C(=O)c2ccn(Cc3ccc4ccccc4c3)n2)C[C@@H]1O [Compound I-48, {(1R,2S,4R)-2-hydroxy-4-[(5-{[1-(2-naphthylmethyl)-1H-pyrazol-3-yl]carbonyl}pyrimidin-4-yl)amino]cyclopentyl}methyl sulfamate] | < 10 | 96 |
| NS(=O)(=O)OC[C@H]1C[C@@H](Nc2ncncc2C(=O)c2ccn(Cc3sc4ccccc4c3Cl)c2)[C@@H](F)[C@@H]1O [Compound I-49, [(1R,2R,3R,4R)-4-{[5-({1-[(3-chloro-1-benzothiophen-2-yl)methyl]-1H-pyrrol-3-yl}carbonyl)pyrimidin-4-yl]amino}-3-fluoro-2-hydroxycyclopentyl]methyl sulfamate] | < 10 | 93 |
| NS(=O)(=O)OC[C@H]1C[C@@H](Nc2ncncc2C(=O)c2ccn(Cc3cc(C(F)(F)F)ccc3Cl)n2)C[C@@H]1O [Compound I-50, [(1R,2S,4R)-4-{[5-({1-[2-chloro-5-(trifluoromethyl)benzyl]-1H-pyrazol-3-yl}carbonyl)pyrimidin-4-yl]amino}-2-hydroxycyclopentyl]methyl sulfamate] | < 10 | 99 |
| Cc1ccnc(Cn2ccc(C(=O)c3cncnc3N[C@@H]3C[C@H](COS(N)(=O)=O)[C@@H](O)[C@H]3O)n2)c1 [Compound I-51, [(1R,2R,3S,4R)-2,3-dihydroxy-4-{[5-({1-[(4-methylpyridin-2-yl)methyl]-1H-pyrazol-3-yl}carbonyl)pyrimidin-4-yl]amino}cyclopentyl]methyl sulfamate] | < 10 | 100 |
| NS(=O)(=O)OC[C@H]1C[C@@H](Nc2ccncc2C(=O)c2ccn(Cc3cccc(Cl)c3)n2)C[C@@H]1O [Compound I-52, {(1R,2S,4R)-4-[(3-{[1-(3-Chlorobenzyl)-1H-pyrazol-3-yl]carbonyl}pyridin-4-yl)amino]-2-hydroxycyclopentyl}methyl sulfamate] | < 10 | 99 |
| NS(=O)(=O)OC[C@H]1C[C@@H](Nc2ncncc2C(=O)c2ccn(Cc3ccnc(C(F)(F)F)c3)n2)C[C@@H]1O [Compound I-53, [(1R,2S,4R)-2-hydroxy-4-({5-[(1-{[2-(trifluoromethyl)pyridin-4-yl]methyl}-1H-pyrazol-3-yl)carbonyl]pyrimidin-4-yl}amino)cyclopentyl]methyl sulfamate] | 10 to 100 | 79 |
| NS(=O)(=O)OC[C@H]1C[C@@H](Nc2ncnc(Cl)c2C(=O)c2ccn(Cc3cccc(Cl)c3)n2)C[C@@H]1O [Compound I-54, {(1R,2S,4R)-4-[(6-Chloro-5-{[1-(3-chlorobenzyl)-1H-pyrazol-3-yl]carbonyl}pyrimidin-4-yl)amino]-2-hydroxycyclopentyl}methyl sulfamate] | 10 to 100 | 63 |
| CC1CC1Cn1ccc(C(=O)c2cncnc2N[C@@H]2C[C@H](COS(N)(=O)=O)[C@@H](O)C2)n1 (stereo partly drawn) [Compound I-55, [(1R,2S,4R)-hydroxy-4-{[5-({1-[((1S,2S)-2-methylcyclopropyl)methyl]-1H-pyrazol-3-yl}carbonyl)pyrimidin-4-yl]amino}cyclopentyl]methyl sulfamate and [(1R,2S,4R)-2-hydroxy-4-{[5-({1-[((1R,2R)-2-methylcyclopropyl)methyl]-1H-pyrazol-3-yl}carbonyl)pyrimidin-4-yl]amino}cyclopentyl]methyl sulfamate] | 10 to 100 | 58 |
| NS(=O)(=O)OC[C@H]1C[C@@H](Nc2ccncc2C(=O)c2ccn(Cc3ccccc3)n2)[C@H](O)[C@@H]1O [Compound I-56, [(1R,2R,3S,4R)-4-({3-[(1-Benzyl-1H-pyrazol-3-yl)carbonyl]pyridin-4-yl}amino)-2,3-dihydroxycyclopentyl]methyl sulfamate] | < 10 | 100 |
| COc1cc(Cn2ccc(C(=O)c3cncnc3N[C@@H]3C[C@H](COS(N)(=O)=O)[C@@H](O)[C@@H]3F)c2)ccc1F [Compound I-57, {(1R,2R,3R,4R)-3-Fluoro-4-[(5-{[1-(4-fluoro-3-methoxybenzyl)-1H-pyrrol-3-yl]carbonyl}pyrimidin-4-yl)amino]-2-hydroxycyclopentyl}methyl sulfamate] | < 10 | 98 |
